The text below walks through data of paper PMC7321108, “1-Hydroxyanthraquinones Containing Aryl Substituents as Potent and Selective Anticancer Agents” (Molecules, 2020).

The subject of data set [1] is SNB-19 glioblastoma cells. The data set can be described thus: MTT cytotoxicity assay, SNB-19. The format is cell-based. To be noted: Homo sapiens, 72 h incubation, mean ± SEM of three experiments, read-out: Cytotoxicity (GI50) against SNB-19. The procedure, abridged:
(§1)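 GI50 values derive from MTT absorbance (450 nm) after 72 h drug exposure at 37 °C, averaged over three independent runs (mean ± SEM). Each concentration was tested in three wells, with untreated cells as reference and doxorubicin as positive control.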
For orientation: Tetrazolium assays rely on reduction of a dye to a coloured formazan, in cell work by metabolically active cells.

In data set [2] the test system is U-87MG glioblastoma cells. As to the kind of experiment: MTT cytotoxicity assay, U-87MG. Type of data set: cell-based. To be noted: Homo sapiens, 72 h incubation, mean ± SEM of three experiments, read-out: Cytotoxicity (GI50) against U-87MG. The procedure, abridged:
as §1

For a further data set, the system named is T98G glioblastoma cells. The data set can be described thus: MTT cytotoxicity assay, T98G. The following applies: Homo sapiens, 72 h incubation, mean ± SEM of three experiments, read-out: Cytotoxicity (GI50) against T98G. The format is cell-based. In short, it runs like this: as §1
Data set [3] concerns MT-4 cells of T-cellular human leucosis. The data set can be described thus: MTT cytotoxicity assay, MT-4. The following applies: MT4, 72 h incubation, mean ± SEM of three experiments, read-out: Cytotoxicity (GI50) against MT-4. The format is cell-based. In short, it runs like this: as §1
A short description of data set [4]: MTT cytotoxicity assay, normal hTERT-immortalized lung fibroblasts. To be noted: human, hTERT-immortalized lung fibroblasts (normal cell line), 72 h incubation, mean ± SEM of three experiments, read-out: Cytotoxicity (GI50) against hTERT Lung Fibroblasts. Type of data set: cell-based. The procedure, abridged: as §1
For another data set, the system named is pUC19 DNA plasmid. The data set can be described thus: Gel retardation (electrophoretic mobility shift) assay. The format is binding. The following applies: 0.5 µg pUC19 plasmid, 0.025 µM test compound, room temperature 1 h, agarose gel 60 V 4 h. As to the method:
The interaction of compounds 13, 15, 16, 23, 25 27, 28, 35, 40 and 44 with DNA was experimentally confirmed by study of the electrophoretic mobility. For this the gel retardation assay was performed. Doxorubicin in different concentration was used as a positive control. In order to avoid destruction of the possible complex of DNA with compounds, the electrophoresis was performed at low voltage. The results are presented at Figure 3.
To study the interaction between test compounds and DNA the electrophoretic mobility shift assay was performed. 0.5 µg of pUC19 plasmid was incubated with 0.025 µM of test compounds at room temperature for 1 h. After that the electrophoresis was performed in agarose gel (1/2%) in TBE buffer (60 V, 4 h). For visualization the gel was staining with ethidium bromide and analyzed with Bio-Rad gel documentation system.
Background: A gel shift assay detects complexes by their altered migration in electrophoresis.

As to `O=C1c2ccccc2C(=O)c2c(-c3ccccc3)ccc(O)c21` [Compound 13, 1-Hydroxy-4-phenylanthracene-9,10-dione], the GI50 (as a rule, the concentration at which growth is held to half of that of the control) in data set [1] was 24.3 ± 1.08 µM; in data set [2], more than 100 µM; in the data set with T98G glioblastoma cells it was 14.1 ± 0.65 µM; in data set [3], 71 ± 0.7 µM. The GI50 at 72 h in data set [4] was 67.1 ± 8.06 µM. Also, in the data set with pUC19 DNA plasmid, the “Retardation of plasmid DNA (electrophoretic mobility)” value is recorded as “cause a retardation of plasmid DNA”.

As to `COc1cccc(-c2ccc(O)c3c2C(=O)c2ccccc2C3=O)c1OC` [Compound 16, 1-(2,3-Dimethoxyphenyl)-4-hydroxyanthracene-9,10-dione], the GI50 was 9.7 ± 0.41 µM in data set [1], more than 100 µM in data set [2], 25.1 ± 1.04 µM in the data set on T98G glioblastoma cells and more than 100 µM in data set [3]. For the same compound, in data set [4], the GI50 at 72 h came out at 48 ± 3.87 µM. Moreover, the “Retardation of plasmid DNA (electrophoretic mobility)” value with pUC19 DNA plasmid was “cause a retardation of plasmid DNA”.
